From PubChem BioAssay AID1035470 (Broad Institute, 2014)
Records with an inconclusive call do not appear. Activity calls are given as the source filed them.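 Rule for the calls: active = compound lowering the normal-ribosome reporter at least twice as much as the humanized-ribosome reporter, growth loss under a set limit; inconclusive = no clear call, values can overlap the other calls; inactive = the rest.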

System: E. coli WT-GFP vs G2058-humanized RFP, fluorescence, 24 h
Assay: E. coli strain growth, wild-type against G2058 humanized RFP mutant – G2058 mutant RFP vs wild-type GFP, cherry-pick, two tests, dose response (AID 1035470)
[1] = E. coli WT-GFP vs G2058-humanized RFP mixed culture, total growth OD600, 24 h
[2] = measured here: G2058 humanized mutant RFP growth

For `Cc1ccc(Cn2cnc3ccccc32)cc1`, the AC50 was > 100 µM (inactive).
For `Cc1cccc(C)c1-n1nnnc1C1(C)CCC(=O)N1Cc1cccs1` (stereo not drawn), the AC50 was > 100 µM (inactive).
With `O=C(CSc1nc(C2CC2)nc2ccccc12)Nc1ccccc1N1CCOCC1` the AC50 was > 100 µM (inactive) and the AC50 [1] was > 100 µM.
With `NC(=O)c1ccsc1NC(=O)COC(=O)Cc1ccc(F)cc1` the AC50 was > 100 µM (inactive) and the AC50 [2] was > 100 µM.
In the case of `O=C(CSCc1cnn(-c2ccccc2)c1-n1cccc1)NCc1cccnc1`, the AC50 [1] is reported as > 100 µM.
For `CCCc1nc2oc3c(NCCCN(C)C)ncnc3c2c2c1CCCC2`, the AC50 was > 100 µM (inactive) and the AC50 [1] was > 100 µM.
For `O=C(c1ccc(Cl)cc1)C1CCCN(Cc2cccc3cnccc23)C1` (stereo not drawn), the AC50 [2] was > 100 µM.
`COc1ccc(CNc2cc([N+](=O)[O-])ccc2OC)cc1` was tested, and the AC50 was > 100 µM (inactive), the AC50 [1] was > 100 µM and the AC50 [2] was > 100 µM.
`O=C(O)c1ccccc1-c1ccccc1C(=O)Nc1ccc2c(c1)CCC2` was tested, and the AC50 was > 100 µM (inactive).
For `CCOc1cc(/C=C(\CC(=O)O)c2nc3ccccc3s2)ccc1OC`, the AC50 was > 100 µM (inactive).
In the case of `O=C(c1ccc(N2CCCCC2)c([N+](=O)[O-])c1)N1CCN(c2ccccn2)CC1`, the AC50 [1] is reported as > 100 µM.
In the case of `O=C1c2ccccc2C(c2nnnn2Cc2ccccc2)N1Cc1cccc(F)c1` (stereo not drawn), the AC50 [1] is reported as > 100 µM.
In the case of `CCc1ccc2nc(N(CCCN(C)C)C(=O)c3ccc4c(c3)OCCO4)sc2c1`, the AC50 is reported as > 100 µM (inactive) and the AC50 [1] is reported as > 100 µM.
`COc1ccc(OC)c(NC(=O)CN(C)CC(=O)Nc2ccccc2Br)c1` was tested, and the AC50 [1] was > 100 µM.
With `CN(C)S(=O)(=O)N1CCN(c2ccccc2Cl)CC1` the AC50 was > 100 µM (inactive) and the AC50 [1] was > 100 µM.
For `CCCC(=O)Nc1cccc(C(=O)Nc2ccccc2OCC)c1`, the AC50 was > 100 µM (inactive).
For `COc1ccc(CNC(=O)c2sc3nc4c(c(C(F)(F)F)c3c2N)CCC4)cc1OC`, the AC50 [2] was > 100 µM.
For `O=C(Nc1cccnc1)c1ccc([N+](=O)[O-])o1`, the AC50 was > 100 µM (inactive) and the AC50 [1] was > 100 µM.
For `Cc1cc([N+](=O)[O-])nn1CC(=O)Nc1cc(F)ccc1F`, the AC50 was > 100 µM (inactive).
For `COc1cc2c(cc1OC)CN(CC(=O)Nc1ccccc1SC)CC2`, the AC50 was > 100 µM (inactive), the AC50 [1] was > 100 µM and the AC50 [2] was 47.2 µM.
`Nc1ccc(C(=O)OCCc2ccccc2)cc1` was tested, and the AC50 was > 100 µM (inactive) and the AC50 [2] was 45.9 µM.
`O=c1c2ccccc2nc(SCc2ccccc2)n1CC1CCCO1` (stereo not drawn) was tested, and the AC50 [1] was > 100 µM.
For `Cc1cc2c(sc3ccccc32)c(C)n1`, the AC50 was > 100 µM (inactive), the AC50 [1] was > 100 µM and the AC50 [2] was 48.8 µM.
With `COCC#Cc1ccc2c(c1)O[C@H](CN(C)C(=O)c1ccccc1)[C@@H](C)CN([C@H](C)CO)S2(=O)=O` the AC50 [1] was > 100 µM.
`O=C(COC(=O)CCSc1ccc(F)cc1)NCc1ccc(F)cc1` was tested, and the AC50 was > 100 µM (inactive) and the AC50 [1] was > 100 µM.
In the case of `CC(C)Oc1ccc(C(CC(=O)O)NC(=O)C(Sc2ccccc2)c2ccccc2)cc1` (stereo not drawn), the AC50 is reported as > 100 µM (inactive).
`O=C1c2ccccc2CSc2c(O)cccc21` was tested, and the AC50 was > 100 µM (inactive).
In the case of `O=C(Nc1ccc(Br)cc1)c1cccnc1N1CCCCC1`, the AC50 is reported as > 100 µM (inactive) and the AC50 [1] is reported as > 100 µM.
`O=C(C[n+]1cc(-c2ccc(Cl)c(Cl)c2)n2c1CCC2)OCc1ccccc1` was tested, and the AC50 was > 100 µM (inactive) and the AC50 [1] was > 100 µM.
For `COc1cccc(NC(=O)CSc2nc3c(sc4ccccc43)c(=O)n2CCN(C)C)c1`, the AC50 was > 100 µM (inactive).
`Nc1nc(Nc2ccccc2F)nc(N2CCOCC2)c1[N+](=O)[O-]` was tested, and the AC50 was > 100 µM (inactive).
For `O=C(Nc1ccc(Cl)cc1)N1C[C@H]2[C@@H](c3ccccc31)[C@@H](CO)N2C(=O)c1ccccn1`, the AC50 was > 100 µM (inactive).
`CCn1c(SCC(=O)Nc2ccc(OC)cc2)nc2nc3c(cc2c1=O)CCCC3` was tested, and the AC50 [1] was 47.7 µM.
In the case of `CC1Cc2cc(-c3csc(NC(=O)Cc4ccccc4)n3)ccc2N1S(C)(=O)=O` (stereo not drawn), the AC50 is reported as > 100 µM (inactive) and the AC50 [1] is reported as > 100 µM.
In the case of `CC1C=Cc2ccccc2N1C(=O)c1ccccc1` (stereo not drawn), the AC50 is reported as > 100 µM (inactive).
With `O=C(O)c1ccc(Oc2ccc([N+](=O)[O-])cc2)c([N+](=O)[O-])c1` the AC50 was > 100 µM (inactive).
